Laboratory results taken from patent US9090583B2, “Benzopyrone estrogen receptor regulator” (BEIJING SHENOGEN PHARMA GROUP LTD., priority 2010, dated 2015).
≈ marks a conversion by molar mass, not a printed value. Like-named read-outs stand apart in the source and are kept apart here.

Tests used:
[1] = tested on: Hep3B2.1-7 cells; assay: MTT assay, in vitro growth of liver cancer Hep3B2.1-7 cells; format: cell-based; settings: 72 hours; for IC50: read-out: Inhibition on liver cancer cells, IC50
Experimental: The liver cancer Hep3B2.1-7 cells were obtained from ATCC. Cells were incubated in 1640 culture medium with 5% fetal calf serum and 100 U/ml double-antibody in a cell incubator at 37° C., 5% CO2 atmosphere and passaged via conventional methods. The sample was dissolved in DMSO, formulated into 50 mg/ml stocking solution, and stored at 4° C. The test solutions at 50, 25, 12.5 and 6.25 μg/ml were formulated with culture medium immediately before use.
The adherent cells were digested with cell digestive solution, and then the exfoliated cells were collected and counted. The cell suspension was formulated with 1640 culture medium containing 5% fetal calf serum (5.0×10^4/ml). The cell suspension was seeded on 96-well plate with 100 μl/well, and maintained in a cell incubator at 37° C., 5% CO2 atmosphere for 24 hours. After that, the compounds at various concentrations were added, where solvent was taken as negative control and Taxol as positive control. 10 μl MTT (5 mg/ml) was added after 72 hours. The supernatant was removed after cultivation for 3 hours more, 150 μl DMSO was added and the formazan was dissolved on shaking. OD values were measured at 570 nm after homogeneous mixing, and inhibition rate and IC50 values were calculated based on the mean of OD values from 3 wells.

[2] = tested on: MCF7 cells; assay: CellTiter-Glo Luminescent Cell Viability Assay on ER-positive breast cancer MCF-7 cells; format: cell-based, human; settings: average ± standard deviation when tested more than 3 times, read-out: Inhibition of the viability of breast cancer cells, IC50
Excerpt: B: In Vitro CellTiter-Glo® Luminescent Cell Viability Assay on ER-Positive Breast Cancer MCF-7 Cells:
MCF7 cells are breast cancer cell lines that highly express ER-66, ER-46 and ER-36. (Relevance of breast cancer cell lines as models for breast tumours: an update. Marc Lacroix, Guy Leclercq, Breast Cancer Research and Treatment (2004) 83, 249-289; Wang et al., Proc. Natl. Acad. Sci. U.S.A. 103:9063-9068 (2006)). MCF7 cells were obtained from ATCC and maintained in Dulbecco's Modified Eagles Medium (DMEM) and 10% fetal calf serum at 37° C., under 5% CO2 atmosphere. The cells were seeded on 96-well plate at a density of 6×10^3 cells per well. MCF7 cells were treated with a test compound dissolved in DMSO at the concentrations of zero, 0.3 μM, 0.5 μM, 1 μM, 2 μM, 3 μM, 5 μM, 10 μM, 20 μM, 30 μM, 50 μM and 100 μM for 72 hours. Treated cells were examined by CellTiter-Glo® Luminescent Cell Viability Assay Kit (Promega), and luminescence values were recorded with Envision.

[3] = tested on: MDA-MB-231 cells; assay: CellTiter-Glo Luminescent Cell Viability Assay on ER-negative breast cancer MDA-MB-231 cells; format: cell-based; settings: average ± standard deviation when tested more than 3 times, read-out: Inhibition of the viability of breast cancer cells, IC50
Experimental: A: In Vitro CellTiter-Glo® Luminescent Cell Viability Assay on ER-Negative Breast Cancer MDA-MB-231 Cells:
MDA-MB-231 cells were maintained at 37° C., under 5% CO2 atmosphere in DMEM containing 10% fetal calf serum. The cells were seeded on 96-well plate at a density of 6×10^3 cells per well. MDA-MB-231 cells were treated with a test compound dissolved in DMSO at the concentrations of zero, 0.3 μM, 0.5 μM, 1 μM, 2 μM, 3 μM, 5 μM, 10 μM, 20 μM, 30 μM, 50 μM and 100 μM for 72 hours. Treated cells were examined by CellTiter-Glo® Luminescent Cell Viability Assay Kit (Promega), and luminescence values were recorded with Envision.

| Molecule | Inhibition on liver cancer cells, IC50 [1] [µg/mL] | IC50 ([2]; 72 hours) [µM] | IC50 ([3]; 72 hours) [µM] | IC50 [1] [µg/mL] | IC50 ([2]; Homo sapiens, MCF7, 72 h) [µM] | IC50 ([3]; Homo sapiens, MDA-MB-231, 72 h) [µM] |
| --- | --- | --- | --- | --- | --- | --- |
| 2-(4-fluoromethoxyphenyl)-5,7-dihydroxy-3-methoxy-6,8-di(3-methyl-2-buten-1-yl)-4H-benzopyran-4-one [Compound 61] | 0.04 | 3.52 | 3.28 |  |  |  |
| COc1c(-c2ccc(Cl)cc2)oc2c(CC=C(C)C)c(O)c(CC=C(C)C)c(O)c2c1=O [Compound 10, 2-(4-chlorophenyl)-5,7-dihydroxy-3-methoxy-6,8-di(3-methyl-2-butylene-1-yl)-4H-benzopyran-4-one] | 9.43 | > 100 | 8.89 |  |  |  |
| COc1c(-c2ccc(C#N)cc2)oc2c(CC=C(C)C)c(O)c(CC=C(C)C)c(O)c2c1=O [Compound 57, 4-[5,7-dihydroxy-3-methoxy-6,8-di(3-methyl-2-butenyl)-4-oxo-4H-benzopyran-2-yl]benzonitrile] |  |  |  | 21 (≈ 47.2 µM) | 4.84 | 2.85 |
| COc1c(-c2ccc(C(N)=O)cc2)oc2c(CC=C(C)C)c(O)c(CC=C(C)C)c(O)c2c1=O [Compound 60, 4-[5,7-dihydroxy-3-methoxy-6,8-di(3-methyl-2-buten-1-yl)-4-oxo-4H-benzopyran-2-yl]benzamide] |  |  |  | 9.95 (≈ 21.5 µM) | 3.02 | 6.36 |
| COc1c(-c2ccc(S(N)(=O)=O)cc2)oc2c(CC=C(C)C)c(O)c(CC=C(C)C)c(O)c2c1=O [Compound 63, 4-[5,7-dihydroxy-3-methoxy-6,8-di(3-methyl-2-buten-1-yl)-4-oxo-4H-benzopyran-2-yl]benzene sulfonamide] |  |  |  | 14 (≈ 28 µM) | 6.06 | 4.87 |
| COc1c(-c2ccc(C(C)(C)O)cc2)oc2c(CC=C(C)C)c(O)c(CC=C(C)C)c(O)c2c1=O [Compound 66] | 0.24 | 3.91 | 2.86 |  |  |  |
| COc1c(-c2ccc(S(=O)(=O)N(C)C)cc2)oc2c(CC=C(C)C)c(O)c(CC=C(C)C)c(O)c2c1=O [Compound 69, 4-[5,7-dihydroxy-3-methoxy-6,8-di(3-methyl-2-buten-1-yl)-4-oxo-4H-benzopyran-2-yl]-N,N-dimethylbenzene sulfonamide] |  |  |  | 3.89 (≈ 7.37 µM) | > 100 | 1.87 |
| CNS(=O)(=O)c1ccc(-c2oc3c(CC=C(C)C)c(O)c(CC=C(C)C)c(O)c3c(=O)c2OC)cc1 [Compound 70, 4-[5,7-dihydroxy-3-methoxy-6,8-di(3-methyl-2-buten-1-yl)-4-oxo-4H-benzopyran-2-yl]N-methylbenzene sulfonamide] |  |  |  | 0.39 (≈ 0.759 µM) | > 100 | 7.64 |
| COc1c(-c2ccc(O)c(C)c2)oc2c(CC=C(C)C)c(O)c(CC=C(C)C)c(O)c2c1=O [Compound 75, 2-(3-methyl-4-hydroxyphenyl)-5,7-dihydroxy-3-methoxy-6,8-di(3-methyl-2-buten-1-yl)-4H-benzopyran-4-one] |  |  |  | 0.83 (≈ 1.84 µM) | 49 | 11.6 |
| COc1c(-c2ccc(O)c(Cl)c2)oc2c(CC=C(C)C)c(O)c(CC=C(C)C)c(O)c2c1=O [Compound 76, 2-(3-chloro-4-hydroxyphenyl)-5,7-dihydroxy-3-methoxy-6,8-di(3-methyl-2-buten-1-yl)-4H-benzopyran-4-one] |  |  |  | 5.79 (≈ 12.3 µM) | 4.08 | 3 |
| COc1c(-c2ccc(O)c(C(F)(F)F)c2)oc2c(CC=C(C)C)c(O)c(CC=C(C)C)c(O)c2c1=O [Compound 77, 2-(3-trifluoromethyl-4-hydroxyphenyl)-5,7-dihydroxy-3-methoxy-6,8-di(3-methyl-2-buten-1-yl)-4H-benzopyran-4-one] |  |  |  | 3.08 (≈ 6.11 µM) | > 100 | 15.4 |
| COc1c(-c2ccc(F)c(O)c2)oc2c(CC=C(C)C)c(O)c(CC=C(C)C)c(O)c2c1=O [Compound 78, 2-(3-hydroxy-4-fluorophenyl)-5,7-dihydroxy-3-methoxy-6,8-di(3-methyl-2-buten-1-yl)-4H-benzopyran-4-one] |  |  |  | 8.95 (≈ 19.7 µM) | 5.46 | 5.36 |

Results, then the molecule that gave them:

| Inhibition on liver cancer cells, IC50 [1] [µg/mL] | IC50 ([2]; 72 hours) [µM] | IC50 ([3]; 72 hours) [µM] | IC50 [1] [µg/mL] | IC50 ([2]; Homo sapiens, MCF7, 72 h) [µM] | IC50 ([3]; Homo sapiens, MDA-MB-231, 72 h) [µM] | Molecule |
| --- | --- | --- | --- | --- | --- | --- |
|  |  |  | 8.23 (≈ 18.1 µM) | 5.33 | 3.64 | COc1c(-c2ccc(O)c(F)c2)oc2c(CC=C(C)C)c(O)c(CC=C(C)C)c(O)c2c1=O [Compound 79, 2-(3-fluoro-4-hydroxyphenyl)-5,7-dihydroxy-3-methoxy-6,8-di(3-methyl-2-buten-1-yl)-4H-benzopyran-4-one] |
|  |  |  |  | > 100 | 8.89 | CC(C)=CCc1c(O)c(CC=C(C)C)c2oc(-c3ccc(Cl)cc3)cc(=O)c2c1O [Compound 91, 2-(4-chlorophenyl)-5,7-dihydroxy-6,8-di(3-methyl-2-buten-1-yl)-4H-benzopyran-4-one] |
|  |  |  |  | > 100 | 21.5 | CC(C)=CCc1c(O)c(CC=C(C)C)c2oc(-c3cccnc3)cc(=O)c2c1O [Compound 92, 2-(pyridin-3-yl)-5,7-dihydroxy-6,8-di(3-methyl-2-buten-1-yl)-4H-benzopyran-4-one] |
|  |  |  |  | 15.6 | 27.5 | CC(C)=CCc1c(O)c(CC=C(C)C)c2oc(-c3ccc(F)c(F)c3)c(C)c(=O)c2c1O [Compound 93, 2-(3,4-difluorophenyl)-3-methyl-5,7-dihydroxy-6,8-di(3-methyl-2-buten-1-yl)-4H-benzopyran-4-one] |
|  |  |  |  | 15.6 | 31.3 | CC(C)=CCc1c(O)c(CC=C(C)C)c2oc(-c3ccc(Cl)c(F)c3)c(C)c(=O)c2c1O [Compound 94, 2-(3-fluoro-4-chlorophenyl)-3-methyl-5,7-dihydroxy-6,8-di(3-methyl-2-buten-1-yl)-4H-benzopyran-4-one] |
|  |  |  |  | 6.62 ± 1.93 | 10.4 ± 1.93 | CC(C)=CCc1c(O)c(CC=C(C)C)c2oc(-c3ccc(F)c(F)c3)c(O)c(=O)c2c1O [Compound 95, 2-(3,4-difluorophenyl)-3,5,7-trihydroxy-6,8-di(3-methyl-2-buten-1-yl)-4H-benzopyran-4-one] |
|  |  |  |  | > 100 | 10.4 | CC(C)=CCc1c(O)c(CC=C(C)C)c2oc(-c3ccc(Cl)c(F)c3)c(O)c(=O)c2c1O [Compound 96, 2-(3-fluoro-4-chlorophenyl)-3,5,7-trihydroxy-6,8-di(3-methyl-2-buten-1-yl)-4H-benzopyran-4-one] |
|  |  |  | 42.8 (≈ 50.1 µM) |  |  | CC(=O)O[C@H]1C(=O)[C@@]2(C)[C@H]([C@H](OC(=O)c3ccccc3)[C@]3(O)C[C@H](OC(=O)[C@H](O)[C@@H](NC(=O)c4ccccc4)c4ccccc4)C(C)=C1C3(C)C)[C@]1(OC(C)=O)CO[C@@H]1C[C@@H]2O [Taxol, reference compound] |
